Measured values taken from patent US12227500B2, “Substituted pyrrolo[2,3-b]pyridines for suppressing toxic endoplasmic reticulum stress” (THE TRUSTEES OF COLUMBIA UNIVERSITY IN THE CITY OF NEW YORK, priority 2018, dated 2025).
Where two headings read alike, the source gives them in different places.

Tests used:
MLK3/MAP3K11 = molecular target: T1, MLK3/MAP3K11 (Homo sapiens, UniProt Q16584); assay: Radiolabeled ATP kinase assay (Reaction Biology Corp.), MLK3; format: biochemical; conditions: for % Enzyme Activity Remaining (relative to DMSO controls), MLK3/MAP3K11, Data 1 / % Enzyme Activity Remaining (relative to DMSO controls), MLK3/MAP3K11, Data 2: [Cmpd] 0.1 μM, 10 μM ATP
T1 construct: purchased Reaction Biology Corp
T1 sequence (Q16584 whole entry): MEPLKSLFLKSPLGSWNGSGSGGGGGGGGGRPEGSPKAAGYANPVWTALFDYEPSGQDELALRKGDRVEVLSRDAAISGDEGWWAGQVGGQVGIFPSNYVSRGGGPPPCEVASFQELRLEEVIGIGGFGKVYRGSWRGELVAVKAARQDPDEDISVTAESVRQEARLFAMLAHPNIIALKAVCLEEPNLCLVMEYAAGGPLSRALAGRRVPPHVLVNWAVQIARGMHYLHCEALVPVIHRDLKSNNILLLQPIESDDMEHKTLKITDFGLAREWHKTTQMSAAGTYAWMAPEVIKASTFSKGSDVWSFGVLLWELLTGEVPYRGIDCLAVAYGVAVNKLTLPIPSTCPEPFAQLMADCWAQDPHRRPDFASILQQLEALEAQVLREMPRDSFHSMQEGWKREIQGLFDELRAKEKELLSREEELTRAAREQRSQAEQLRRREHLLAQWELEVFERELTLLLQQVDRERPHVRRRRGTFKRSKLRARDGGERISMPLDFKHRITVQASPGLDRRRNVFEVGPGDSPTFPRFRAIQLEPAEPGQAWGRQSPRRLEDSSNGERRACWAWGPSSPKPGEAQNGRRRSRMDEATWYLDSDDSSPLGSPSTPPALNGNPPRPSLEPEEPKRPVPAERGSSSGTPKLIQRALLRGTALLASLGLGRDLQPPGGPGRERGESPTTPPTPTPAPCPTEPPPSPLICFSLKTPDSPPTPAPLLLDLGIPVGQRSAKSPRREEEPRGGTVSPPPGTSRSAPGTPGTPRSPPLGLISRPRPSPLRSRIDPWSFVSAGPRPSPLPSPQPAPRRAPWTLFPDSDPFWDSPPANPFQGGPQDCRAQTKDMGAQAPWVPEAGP
Description: (§1) Meanwhile, the same analogs were analyzed in a radiolabeled ATP assay (10 μM ATP; Reaction Biology Corp.) to compare the extent to which they could inhibit the activity of HGK, MLK1, or MLK3 in a cell-free environment (Table S3 and S4).

[1] = molecular target: T2, panel of 60 human kinases (Homo sapiens, UniProt Q12851); assay: Radiolabeled ATP kinase assay, panel of 60 kinases (Table S5); format: biochemical; conditions: GCK/MAP4K1; 0.1 μM; 10 μM ATP; read-out: % Enzyme Activity (relative to DSMO controls)
T2 construct: purchased Reaction Biology Corp
T2 sequence (Q12851 1-820): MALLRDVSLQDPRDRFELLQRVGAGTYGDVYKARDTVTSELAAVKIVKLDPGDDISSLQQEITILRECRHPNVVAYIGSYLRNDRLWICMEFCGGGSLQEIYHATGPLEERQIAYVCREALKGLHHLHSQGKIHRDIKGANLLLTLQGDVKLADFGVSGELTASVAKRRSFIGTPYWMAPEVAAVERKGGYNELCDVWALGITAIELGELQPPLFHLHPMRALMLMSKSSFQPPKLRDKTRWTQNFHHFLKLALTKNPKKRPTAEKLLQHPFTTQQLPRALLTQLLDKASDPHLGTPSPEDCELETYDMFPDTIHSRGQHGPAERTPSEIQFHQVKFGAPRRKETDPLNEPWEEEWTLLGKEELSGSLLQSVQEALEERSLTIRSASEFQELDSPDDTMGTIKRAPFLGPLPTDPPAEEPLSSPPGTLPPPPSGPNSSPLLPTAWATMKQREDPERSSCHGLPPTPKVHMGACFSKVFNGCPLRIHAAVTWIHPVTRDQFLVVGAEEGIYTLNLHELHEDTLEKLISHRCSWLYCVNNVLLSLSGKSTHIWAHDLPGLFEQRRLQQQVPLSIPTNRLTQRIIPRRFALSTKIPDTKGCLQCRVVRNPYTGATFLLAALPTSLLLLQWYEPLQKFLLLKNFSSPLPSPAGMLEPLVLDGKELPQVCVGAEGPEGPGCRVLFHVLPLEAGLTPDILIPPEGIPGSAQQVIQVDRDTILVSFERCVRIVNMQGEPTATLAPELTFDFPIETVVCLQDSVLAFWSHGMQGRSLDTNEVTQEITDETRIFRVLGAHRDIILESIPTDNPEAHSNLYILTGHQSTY
Description: (§2) To better understand the biologically relevant targets of compound 1 and its analogs, a second round of cell-free kinase assays was performed. In this expanded assay, we selected ten analogs ranging from moderately to very strongly protective in the CPA assay. These analogs were evaluated for their ability to inhibit a selection of 60 kinases at 0.1 μM and 0.5 μM. […] RNAseq data were used to confirm the expression of each kinase in ES MNs (see Example 12).
(§3) RNAseq data were used to confirm the expression of each kinase in ES motor neurons (see Example 12).

[2] = molecular target: T3, panel of 60 human kinases (Homo sapiens, UniProt Q9H2K8); assay: as above; format: biochemical; conditions: TAOK3/JIK; 0.1 μM; 10 μM ATP; read-out: % Enzyme Activity (relative to DSMO controls)
T3 construct: purchased Reaction Biology Corp
T3 sequence (Q9H2K8 1-898): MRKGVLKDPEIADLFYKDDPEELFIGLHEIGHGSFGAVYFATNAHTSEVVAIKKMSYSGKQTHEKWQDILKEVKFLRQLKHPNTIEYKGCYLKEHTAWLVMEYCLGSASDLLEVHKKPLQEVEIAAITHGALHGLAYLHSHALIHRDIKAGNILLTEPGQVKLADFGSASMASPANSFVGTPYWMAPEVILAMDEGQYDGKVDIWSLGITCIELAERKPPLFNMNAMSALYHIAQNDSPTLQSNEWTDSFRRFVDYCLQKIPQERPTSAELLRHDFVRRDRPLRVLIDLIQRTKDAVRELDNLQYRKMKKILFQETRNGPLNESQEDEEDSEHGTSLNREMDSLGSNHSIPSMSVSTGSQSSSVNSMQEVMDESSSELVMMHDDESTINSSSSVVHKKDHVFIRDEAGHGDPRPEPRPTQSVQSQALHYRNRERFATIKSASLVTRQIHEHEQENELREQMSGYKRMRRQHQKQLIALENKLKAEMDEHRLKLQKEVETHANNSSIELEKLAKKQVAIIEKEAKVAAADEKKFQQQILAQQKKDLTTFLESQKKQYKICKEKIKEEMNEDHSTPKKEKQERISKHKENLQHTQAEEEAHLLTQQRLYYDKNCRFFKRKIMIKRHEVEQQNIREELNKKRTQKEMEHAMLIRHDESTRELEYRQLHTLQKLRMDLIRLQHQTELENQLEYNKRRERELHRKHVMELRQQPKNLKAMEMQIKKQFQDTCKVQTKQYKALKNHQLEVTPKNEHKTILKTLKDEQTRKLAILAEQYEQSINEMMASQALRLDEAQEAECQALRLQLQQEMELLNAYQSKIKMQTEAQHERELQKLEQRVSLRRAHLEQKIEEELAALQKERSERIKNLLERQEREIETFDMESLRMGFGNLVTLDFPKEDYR
Description: as §2, §3

MLK1/MAP3K9 = molecular target: T4, MLK1/MAP3K9 (Homo sapiens, UniProt P80192); assay: Radiolabeled ATP kinase assay (Reaction Biology Corp.), MLK1; format: biochemical; conditions: [Cmpd] 0.1 μM, 10 μM ATP
T4 construct: purchased Reaction Biology Corp
T4 sequence (P80192 whole entry): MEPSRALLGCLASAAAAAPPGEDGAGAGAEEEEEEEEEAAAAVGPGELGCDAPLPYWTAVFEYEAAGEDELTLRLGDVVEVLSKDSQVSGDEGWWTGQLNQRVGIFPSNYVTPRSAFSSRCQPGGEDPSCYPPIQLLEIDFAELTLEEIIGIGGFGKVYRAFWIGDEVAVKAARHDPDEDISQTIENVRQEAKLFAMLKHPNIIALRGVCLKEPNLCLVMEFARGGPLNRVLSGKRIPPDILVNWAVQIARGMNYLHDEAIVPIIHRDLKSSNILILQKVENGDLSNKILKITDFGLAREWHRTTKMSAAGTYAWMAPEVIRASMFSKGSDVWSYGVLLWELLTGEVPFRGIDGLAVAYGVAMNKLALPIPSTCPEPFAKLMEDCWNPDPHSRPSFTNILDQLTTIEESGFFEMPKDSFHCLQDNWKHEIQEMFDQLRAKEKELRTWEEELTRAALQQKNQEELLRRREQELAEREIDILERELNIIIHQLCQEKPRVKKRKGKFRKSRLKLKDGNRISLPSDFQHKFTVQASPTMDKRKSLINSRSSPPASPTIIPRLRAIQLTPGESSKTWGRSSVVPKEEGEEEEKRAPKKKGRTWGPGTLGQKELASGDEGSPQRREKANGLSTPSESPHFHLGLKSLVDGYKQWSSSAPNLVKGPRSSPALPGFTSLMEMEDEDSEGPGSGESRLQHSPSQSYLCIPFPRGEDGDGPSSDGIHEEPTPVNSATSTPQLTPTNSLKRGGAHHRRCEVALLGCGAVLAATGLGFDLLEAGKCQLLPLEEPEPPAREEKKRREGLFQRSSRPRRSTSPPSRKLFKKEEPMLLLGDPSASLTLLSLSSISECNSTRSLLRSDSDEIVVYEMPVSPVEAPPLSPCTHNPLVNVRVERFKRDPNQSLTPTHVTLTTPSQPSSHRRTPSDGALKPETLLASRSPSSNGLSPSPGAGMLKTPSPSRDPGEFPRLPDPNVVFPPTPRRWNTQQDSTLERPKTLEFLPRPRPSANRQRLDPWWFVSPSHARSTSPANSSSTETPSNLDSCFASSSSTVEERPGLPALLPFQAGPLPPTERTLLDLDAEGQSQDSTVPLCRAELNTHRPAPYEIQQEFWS
Description: as §1

[3] = system: human ES motor neurons carrying the ALS-causing SOD1^A4V mutation; assay: cells; format: cell-based; conditions: 72 h, 72 h; for EC50 / Emax: CPA 33 μM; for EC50: read-out: EC50; for viability at 1 µM: CPA (33 μM) + compound (1 μM), read-out: Motor Neuron Survival, % untreated; for Emax: read-out: Emax (MN survival % untreated)
Description: Next, survival assays were performed with all the analogs at once to generate a low-variability dataset. All compounds were evaluated at concentrations ranging from 0.1-3.0 μM (five-point dilution) in three technical replicates and two biological replicates.

[4] = read-out: % Enzyme Activity Remaining (relative to DMSO controls), MLK1/MAP3K9, Data 1
[5] = read-out: % Enzyme Activity Remaining (relative to DMSO controls), MLK1/MAP3K9, Data 2

| SMILES | remaining activity at 0.1 µM (MLK3/MAP3K11; 0.1 μM) [%] | remaining activity at 0.1 µM [1] [%] | remaining activity at 0.1 µM [2] [%] | remaining activity at 0.1 µM (MLK1/MAP3K9; [4]) [%] | remaining activity at 0.1 µM (MLK1/MAP3K9; [5]) [%] | EC50 ([3]; Homo sapiens, Neuron) [nM] | viability at 1 µM ([3]; Homo sapiens, Neuron) [%] | Emax ([3]; Homo sapiens, Neuron) [%] | % Enzyme Activity Remaining (relative to DMSO controls), MLK3/MAP3K11, Data 1 (MLK3/MAP3K11) [%] | % Enzyme Activity Remaining (relative to DMSO controls), MLK3/MAP3K11, Data 2 (MLK3/MAP3K11) [%] | EC50 [3] [nM] |
| --- | --- | --- | --- | --- | --- | --- | --- | --- | --- | --- | --- |
| CN1CCN(Cc2ccc(-c3cnc4[nH]cc(-c5ccc6[nH]ccc6c5)c4c3)cc2)CC1 [Compound 1, 3-(1H-Indol-5-yl)-5-(4-((4-methylpiperazin-1-yl)methyl)phenyl)-1H-pyrrolo[2,3-b]pyridine, reference compound] | 10.5 | 27.5 | 84 | 16.2 | 14.2 | 215 | 102 | 102 | – | – | – |
| CN1CCN(Cc2ccc(-c3cnc4[nH]cc(-c5cccc(Cl)c5)c4c3)cc2)CC1 [Compound 7ad, 3-(3-Chlorophenyl)-5-(4-((4-methylpiperazin-1-yl)methyl)phenyl)-1H-pyrrolo[2,3-b]pyridine] | – | 8.09 | 92 | 61.9 | 63.6 | 285 | 87.7 | 87.7 | 37.50 | 38.21 | – |
| CN1CCN(Cc2ccc(-c3cnc4[nH]cc(-c5cnn(Cc6ccccc6)c5)c4c3)cc2)CC1 [Compound 7ah, 3-(1-Benzyl-1H-pyrazol-4-yl)-5-(4-((4-methylpiperazin-1-yl)methyl)phenyl)-1H-pyrrolo[2,3-b]pyridine] | – | 10.1 | 77.4 | 51.1 | 48.2 | 234 | 67.1 | 67.1 | 32.02 | 32.11 | – |
| Cc1nn(C)c(C)c1-c1c[nH]c2ncc(-c3ccc(CN4CCN(C)CC4)cc3)cc12 [Compound 7ai, 5-(4-((4-Methylpiperazin-1-yl)methyl)phenyl)-3-(1,3,5-trimethyl-1H-pyrazol-4-yl)-1H-pyrrolo[2,3-b]pyridine] | – | 53.8 | 102 | 93.3 | 90.5 | 3230 | – | 86.5 | 93.11 | 88.00 | – |
| CN1CCN(Cc2ccc(-c3cnc4[nH]cc(-c5ccccc5Cl)c4c3)cc2)CC1 [Compound 7as, 3-(2-Chlorophenyl)-5-(4-((4-methylpiperazin-1-yl)methyl)phenyl)-1H-pyrrolo[2,3-b]pyridine] | – | 8.85 | 69.8 | 72.7 | 73.3 | 329 | 80.8 | 80.8 | 49.99 | 51.55 | – |
| COc1ccccc1-c1c[nH]c2ncc(-c3ccc(CN4CCN(C)CC4)cc3)cc12 [Compound 7at, 3-(2-Methoxyphenyl)-5-(4-((4-methylpiperazin-1-yl)methyl)phenyl)-1H-pyrrolo[2,3-b]pyridine] | – | 12.3 | 65.5 | 31.3 | 30.6 | 297 | 67.5 | 85 | 24.55 | 21.30 | – |
| CN1CCN(Cc2ccc(-c3cnc4[nH]cc(-c5ccc6c(c5)OCCO6)c4c3)cc2)CC1 [Compound 7d, 3-(2,3-Dihydrobenzo[b][1,4]dioxin-6-yl)-5-(4-((4-methylpiperazin-1-yl)methyl)phenyl)-1H-pyrrolo[2,3-b]pyridine] | – | 13.1 | 67.9 | 25.6 | 23.6 | 327 | 72.9 | 72.9 | 25.04 | 18.84 | – |
| CN1CCN(Cc2ccc(-c3cnc4[nH]cc(-c5ccncc5)c4c3)cc2)CC1 [Compound 7n, 5-(4-((4-Methylpiperazin-1-yl)methyl)phenyl)-3-(pyridin-4-yl)-1H-pyrrolo[2,3-b]pyridine] | – | 59.6 | 94.9 | 88.9 | 88.7 | 483 | 36.3 | 36.3 | 91.26 | 92.62 | – |
| CN1CCN(Cc2ccc(-c3cnc4[nH]cc(-c5ccoc5)c4c3)cc2)CC1 [Compound 7w, 3-(Furan-3-yl)-5-(4-((4-methylpiperazin-1-yl)methyl)phenyl)-1H-pyrrolo[2,3-b]pyridine] | – | 33.6 | 95.2 | 76 | 79.3 | 1370 | 46.6 | 0.42 | 75.10 | 76.98 | – |
| OCCN1CCN(Cc2ccc(-c3cnc4[nH]cc(-c5cccc(Cl)c5)c4c3)cc2)CC1 [Compound 12k, 2-(4-(4-(3-(3-Chlorophenyl)-1H-pyrrolo[2,3-b]pyridin-5-yl)benzyl)piperazin-1-yl)ethan-1-ol] | – | – | – | – | – | 99 | – | 112 | – | – | 100 |
